Experimental data as given in PubChem BioAssay AID330 (DTP/NCI, 2004).
Values joined by “and” are separate entries in the source; they are usually repeats but may differ in a detail not shown here. Equal entries are not always repeated. Inconclusive results and toxic doses are left out. Rule for the calls: active = survival T/C of 150% or more; inactive = T/C below 125% in these data.

Tested on: P388 leukemia ip, CD2F1 mice, survival T/C
Assay: NCI In Vivo Anticancer Drug Screen. Data for tumor model P388 Leukemia (intraperitoneal) in CD2F1 (CDF1) mice
Conditions: endpoint: median survival time, higher = longer survival
Method in brief: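 Mice carrying the transplanted tumor received test compound or vehicle. Survival was recorded in each group, and the value is the treated-group measurement divided by that of the vehicle-treated control group.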

[1] = dose: 50.0 mg/kg/injection, schedule: Q01DX009 (ip), vehicle: saline
[2] = dose: 100.0 mg/kg/injection, schedule: Q01DX009 (ip), vehicle: saline
[3] = dose: 200.0 mg/kg/injection, schedule: Q01DX009 (ip), vehicle: saline
[4] = dose: 100.0 mg/kg/injection, schedule: Q01DX001 (ip), vehicle: saline with Tween-80
[5] = dose: 200.0 mg/kg/injection, schedule: Q01DX001 (ip), vehicle: saline with Tween-80
[6] = dose: 400.0 mg/kg/injection, schedule: Q01DX001 (ip), vehicle: saline with Tween-80
[7] = dose: 50.0 mg/kg/injection, schedule: Q01DX005 (ip), vehicle: saline with Tween-80
[8] = dose: 100.0 mg/kg/injection, schedule: Q01DX005 (ip), vehicle: saline with Tween-80
[9] = dose: 10.0 mg/kg/injection, schedule: Q01DX009 (ip), vehicle: saline with Tween-80
[10] = dose: 200.0 mg/kg/injection, schedule: Q01DX005 (ip), vehicle: saline with Tween-80
[11] = dose: 50.0 mg/kg/injection, schedule: Q01DX009 (ip), vehicle: saline with Tween-80
[12] = dose: 100.0 mg/kg/injection, schedule: Q01DX009 (ip), vehicle: saline with Tween-80
[13] = dose: 200.0 mg/kg/injection, schedule: Q01DX009 (ip), vehicle: saline with Tween-80
[14] = dose: 30.0 mg/kg/injection, schedule: Q01DX005 (ip), vehicle: saline with Tween-80
[15] = dose: 60.0 mg/kg/injection, schedule: Q01DX005 (ip), vehicle: saline with Tween-80
[16] = dose: 120.0 mg/kg/injection, schedule: Q01DX005 (ip), vehicle: saline with Tween-80
[17] = dose: 100.0 mg/kg/injection, schedule: Q01DX009 (ip), vehicle: Klucel (hydroxypropylcellulose) (HPC)
[18] = dose: 200.0 mg/kg/injection, schedule: Q01DX009 (ip), vehicle: Klucel (hydroxypropylcellulose) (HPC)
[19] = dose: 15.0 mg/kg/injection, schedule: Q01DX005 (ip), vehicle: saline with Tween-80
[20] = dose: 12.5 mg/kg/injection, schedule: Q01DX009 (ip), vehicle: saline
[21] = dose: 25.0 mg/kg/injection, schedule: Q01DX009 (ip), vehicle: saline

Measured: T/C

CC(=O)NCNC(C)=O
inactive: [1] 100 % of control | [2] 97 % of control | [3] 108 % of control

CC(=O)O.CC(C)=CCC(OC(=O)C=C(C)C)c1cc(O)c2c(O)ccc(O)c2c1O.[Cr] (stereo not given)
inactive: [4] 93 % of control | [5] 93 % of control | [6] 94 % of control

COC(=O)c1[nH]c(=S)[nH]c(=O)c1C
inactive: [7] 89 % of control | [8] 97 % of control

CCN(CC)CCCC(C)Nc1cc(C)nc(Nc2nc3cc(Cl)c(Cl)cc3[nH]2)n1 (stereo not given)
inactive: dose: 2.5 mg/kg/injection, schedule: Q01DX009 (ip), vehicle: saline with Tween-80 100 % of control | dose: 5.0 mg/kg/injection, schedule: Q01DX009 (ip), vehicle: saline with Tween-80 90 % of control | [9] 100 % of control

CCN(CC)C(=O)c1c(OC)cc(C)cc1C(O)c1cc(OC)cc(OC)c1 (stereo not given)
inactive: [7] 99 % of control | [8] 99 % of control | [10] 96 % of control

CC(NC(=O)OC(C)(C)C)C(=O)NC(C)C(=O)NC(C)C(=O)OCc1ccccc1 (stereo not given)
inactive: [7] 99 % of control | [8] 99 % of control | [10] 101 % of control

O=[N+]([O-])c1ccc(/C(=C/c2ccc(F)cc2)S(=O)(=O)c2ccccc2)o1
inactive: dose: 50.0 mg/kg/injection, schedule: Q01DX009 (ip), vehicle: suspension in saline 97 % of control | dose: 100.0 mg/kg/injection, schedule: Q01DX009 (ip), vehicle: suspension in saline 88 % of control

CCCN1CN2C(C)C(c3ccccc3)OC2C(C)(C)C1 (stereo not given)
inactive: [11] 112 % of control | [12] 112 % of control | [13] 117 % of control

Clc1nc(C(Cl)Cl)nc2ccccc12
inactive: [14] 106 % of control | [15] 110 % of control and 111 % of control | [16] 111 % of control and 113 % of control

CC(C)OC(=O)NC1CCC2CCCCC2C1 (stereo not given)
inactive: [1] 102 % of control | [2] 102 % of control | [3] 100 % of control

c1ccc2c(C[Se][Se]Cc3cccc4ccccc34)cccc2c1
inactive: [17] 90 % of control | [18] 90 % of control

O=c1c(CSc2c(-c3ccccc3)c(=O)c2=O)c(-c2ccccc2)c1=O
inactive: [4] 101 % of control | [5] 104 % of control | [6] 95 % of control

C1CCN(CN2CCCCC2)CC1
inactive: [1] 104 % of control | [2] 108 % of control

CC(=O)c1ccc(NC(=O)C#N)cc1
inactive: dose: 7.5 mg/kg/injection, schedule: Q01DX005 (ip), vehicle: saline with Tween-80 104 % of control | [19] 110 % of control

COc1ccc(CCNC(=O)C(=O)c2c[nH]c3ccccc23)cc1OC
inactive: [7] 90 % of control | [8] 88 % of control | [10] 89 % of control

C=C1C(=O)O[C@H]2C1[C@H](OC(=O)/C(C)=C\C)CC(=C)[C@@H]1C(=O)[C@H]3O[C@@]3(C)[C@@]12O (stereo not given in full)
inactive: dose: 12.5 mg/kg/injection, schedule: Q01DX005 (ip), vehicle: saline + alcohol 116 % of control and 117 % of control | dose: 25.0 mg/kg/injection, schedule: Q01DX005 (ip), vehicle: saline + alcohol 110 % of control and 121 % of control

Clc1c(Cl)c(Cl)c(C[n+]2ccccc2)c(Cl)c1Cl
inactive: dose: 6.25 mg/kg/injection, schedule: Q01DX009 (ip), vehicle: saline 105 % of control | [20] 98 % of control | [21] 102 % of control | [1] 99 % of control

CCCCCCCN(CCCCCCC)CC(O)c1c(OC)c2cc(Cl)ccc2c2ccc(Cl)cc12 (stereo not given)
inactive: [9] 94 % of control | dose: 20.0 mg/kg/injection, schedule: Q01DX009 (ip), vehicle: saline with Tween-80 90 % of control | dose: 40.0 mg/kg/injection, schedule: Q01DX009 (ip), vehicle: saline with Tween-80 92 % of control

COc1cccc(-c2nc(SC)nc(Cl)c2C#N)c1
inactive: [19] 96 % of control | [14] 86 % of control | [15] 108 % of control and 93 % of control | [16] 113 % of control

CCOC(=O)C#Cc1cccc(C#CC(=O)OCC)c1
inactive: dose: 50.0 mg/kg/injection, schedule: Q01DX001 (ip), vehicle: saline with Tween-80 98 % of control | [4] 99 % of control and 118 % of control | [5] 120 % of control

Nc1ncc2c(n1)CCCC2
inactive: [7] 98 % of control | [8] 98 % of control | [10] 100 % of control

CCN(CC)CCC(CNc1c2ccc(Cl)cc2nc2ccc(OC)cc12)c1ccccc1 (stereo not given)
inactive: dose: 12.5 mg/kg/injection, schedule: Q01DX005 (ip), vehicle: saline with Tween-80 98 % of control | dose: 25.0 mg/kg/injection, schedule: Q01DX005 (ip), vehicle: saline with Tween-80 100 % of control | [7] 108 % of control and 115 % of control

CC(C)CC(C(=O)O)N1C(=O)C=CC1=O (stereo not given)
inactive: dose: 12.5 mg/kg/injection, schedule: Q01DX009 (ip), vehicle: Klucel (hydroxypropylcellulose) (HPC) 93 % of control | dose: 25.0 mg/kg/injection, schedule: Q01DX009 (ip), vehicle: Klucel (hydroxypropylcellulose) (HPC) 107 % of control

CCCCc1ccc(Nc2c(C(=O)O)cnc3cc4c(cc23)OCO4)cc1
inactive: dose: 60.0 mg/kg/injection, schedule: Q01DX005 (ip), vehicle: Klucel + Tween-80 103 % of control | dose: 120.0 mg/kg/injection, schedule: Q01DX005 (ip), vehicle: Klucel + Tween-80 100 % of control | dose: 240.0 mg/kg/injection, schedule: Q01DX005 (ip), vehicle: Klucel + Tween-80 97 % of control

CCOC([O-])=N/C(=N/[n+]1ccccc1)c1ccccc1
inactive: dose: 50.0 mg/kg/injection, schedule: Q01DX009 (ip), vehicle: Klucel (hydroxypropylcellulose) (HPC) 107 % of control | [17] 96 % of control | [18] 100 % of control

C=C(C)C(=NC(C)(C)C)N(C(C)C)C(C)C
inactive: dose: 12.5 mg/kg/injection, schedule: Q01DX005 (ip), vehicle: Klucel (hydroxypropylcellulose) (HPC) 102 % of control | dose: 12.5 mg/kg/injection, schedule: Q01DX009 (ip), vehicle: saline with Tween-80 89 % of control | [20] 102 % of control | dose: 25.0 mg/kg/injection, schedule: Q01DX005 (ip), vehicle: Klucel (hydroxypropylcellulose) (HPC) 96 % of control | dose: 25.0 mg/kg/injection, schedule: Q01DX009 (ip), vehicle: saline with Tween-80 97 % of control | [21] 101 % of control | dose: 50.0 mg/kg/injection, schedule: Q01DX005 (ip), vehicle: Klucel (hydroxypropylcellulose) (HPC) 98 % of control | [11] 100 % of control and 120 % of control | [12] 108 % of control

O=C(OCC(O)CO)c1c(Cl)c(Cl)c(Cl)c(Cl)c1-c1c2cc(I)c(=O)c(I)c-2oc2c(I)c(O)c(I)cc12 (stereo not given)
inactive: dose: 60.0 mg/kg/injection, schedule: Q01DX005 (ip), vehicle: saline 94 % of control | dose: 120.0 mg/kg/injection, schedule: Q01DX005 (ip), vehicle: saline 100 % of control | dose: 240.0 mg/kg/injection, schedule: Q01DX005 (ip), vehicle: saline 102 % of control

CCOC(=O)c1cc(CC)sc1N
inactive: [12] 90 % of control | [13] 90 % of control

CCCCOP(O)(=S)OCCCC
inactive: dose: 100.0 mg/kg/injection, schedule: Q04DX002 (ip), vehicle: saline with Tween-80 108 % of control | dose: 100.0 mg/kg/injection, schedule: Q04DX003 (ip), vehicle: saline with Tween-80 105 % of control and 100 % of control | dose: 200.0 mg/kg/injection, schedule: Q04DX002 (ip), vehicle: saline with Tween-80 104 % of control | dose: 200.0 mg/kg/injection, schedule: Q04DX003 (ip), vehicle: saline with Tween-80 106 % of control and 100 % of control | dose: 400.0 mg/kg/injection, schedule: Q04DX002 (ip), vehicle: saline with Tween-80 95 % of control | dose: 400.0 mg/kg/injection, schedule: Q04DX003 (ip), vehicle: saline with Tween-80 101 % of control and 106 % of control

O=Cc1c(Br)n(-c2ccccc2)c2ccccc12
inactive: dose: 100.0 mg/kg/injection, schedule: Q01DX001 (ip), vehicle: Klucel (hydroxypropylcellulose) (HPC) 102 % of control | dose: 200.0 mg/kg/injection, schedule: Q01DX001 (ip), vehicle: Klucel (hydroxypropylcellulose) (HPC) 100 % of control | dose: 400.0 mg/kg/injection, schedule: Q01DX001 (ip), vehicle: Klucel (hydroxypropylcellulose) (HPC) 100 % of control

CC1CCCCC1=C(C#N)C#N (stereo not given)
inactive: dose: 12.5 mg/kg/injection, schedule: Q01DX009 (ip), vehicle: other 95 % of control | dose: 25.0 mg/kg/injection, schedule: Q01DX009 (ip), vehicle: other 100 % of control
